How the values were obtained:
[1] = target: T1, Cyclin-G-associated kinase (Homo sapiens) (UniProt O14976)
T1 sequence (whole entry): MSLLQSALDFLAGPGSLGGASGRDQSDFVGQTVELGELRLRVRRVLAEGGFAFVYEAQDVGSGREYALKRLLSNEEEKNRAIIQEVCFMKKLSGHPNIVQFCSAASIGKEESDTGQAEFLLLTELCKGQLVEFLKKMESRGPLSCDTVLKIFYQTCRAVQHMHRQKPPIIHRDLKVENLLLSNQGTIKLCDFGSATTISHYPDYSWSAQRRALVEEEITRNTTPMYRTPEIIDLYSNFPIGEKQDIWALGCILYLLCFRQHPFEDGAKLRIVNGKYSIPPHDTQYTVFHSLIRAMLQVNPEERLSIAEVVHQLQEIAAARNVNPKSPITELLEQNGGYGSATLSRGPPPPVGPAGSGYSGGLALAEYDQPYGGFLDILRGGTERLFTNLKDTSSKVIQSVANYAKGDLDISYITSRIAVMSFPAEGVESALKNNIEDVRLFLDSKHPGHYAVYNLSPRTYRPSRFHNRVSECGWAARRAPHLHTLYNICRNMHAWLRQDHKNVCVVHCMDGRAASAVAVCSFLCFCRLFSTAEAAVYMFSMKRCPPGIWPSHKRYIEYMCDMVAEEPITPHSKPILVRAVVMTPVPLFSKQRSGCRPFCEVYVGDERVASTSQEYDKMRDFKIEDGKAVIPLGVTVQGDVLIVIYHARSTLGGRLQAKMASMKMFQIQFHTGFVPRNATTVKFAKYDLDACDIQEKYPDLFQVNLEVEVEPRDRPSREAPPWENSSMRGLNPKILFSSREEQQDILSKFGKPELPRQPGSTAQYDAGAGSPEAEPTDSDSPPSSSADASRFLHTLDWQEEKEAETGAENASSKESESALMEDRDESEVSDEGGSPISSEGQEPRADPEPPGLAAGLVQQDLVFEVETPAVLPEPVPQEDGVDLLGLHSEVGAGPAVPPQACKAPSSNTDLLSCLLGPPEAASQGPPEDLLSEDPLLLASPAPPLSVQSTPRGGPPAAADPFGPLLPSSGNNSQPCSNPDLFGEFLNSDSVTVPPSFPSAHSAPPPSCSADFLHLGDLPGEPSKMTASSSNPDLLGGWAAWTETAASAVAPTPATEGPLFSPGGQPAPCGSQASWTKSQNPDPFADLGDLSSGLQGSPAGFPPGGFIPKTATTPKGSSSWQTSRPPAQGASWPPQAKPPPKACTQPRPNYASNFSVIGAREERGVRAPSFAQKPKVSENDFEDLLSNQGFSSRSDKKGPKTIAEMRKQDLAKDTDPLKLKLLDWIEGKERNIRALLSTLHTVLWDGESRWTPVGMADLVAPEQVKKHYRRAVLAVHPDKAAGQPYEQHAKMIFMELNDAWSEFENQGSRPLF
Description: Induction of stabilization of recombinant GAK (unknown origin) assessed as change in melting temperature by differential scanning fluorimetry assay

[2] = target: Ephrin type-A receptor 5 (Homo sapiens) (UniProt P54756)
Description: Induction of stabilization of recombinant EPHA5 (unknown origin) assessed as change in melting temperature by differential scanning fluorimetry assay

[3] = target: Vascular endothelial growth factor receptor 1 (Homo sapiens, UniProt P17948); assay: Induction of stabilization of recombinant FLT1 (unknown origin) assessed as change in melting temperature by differential scanning fluorimetry assay
Vascular endothelial growth factor receptor 1, sequence (P17948 whole entry): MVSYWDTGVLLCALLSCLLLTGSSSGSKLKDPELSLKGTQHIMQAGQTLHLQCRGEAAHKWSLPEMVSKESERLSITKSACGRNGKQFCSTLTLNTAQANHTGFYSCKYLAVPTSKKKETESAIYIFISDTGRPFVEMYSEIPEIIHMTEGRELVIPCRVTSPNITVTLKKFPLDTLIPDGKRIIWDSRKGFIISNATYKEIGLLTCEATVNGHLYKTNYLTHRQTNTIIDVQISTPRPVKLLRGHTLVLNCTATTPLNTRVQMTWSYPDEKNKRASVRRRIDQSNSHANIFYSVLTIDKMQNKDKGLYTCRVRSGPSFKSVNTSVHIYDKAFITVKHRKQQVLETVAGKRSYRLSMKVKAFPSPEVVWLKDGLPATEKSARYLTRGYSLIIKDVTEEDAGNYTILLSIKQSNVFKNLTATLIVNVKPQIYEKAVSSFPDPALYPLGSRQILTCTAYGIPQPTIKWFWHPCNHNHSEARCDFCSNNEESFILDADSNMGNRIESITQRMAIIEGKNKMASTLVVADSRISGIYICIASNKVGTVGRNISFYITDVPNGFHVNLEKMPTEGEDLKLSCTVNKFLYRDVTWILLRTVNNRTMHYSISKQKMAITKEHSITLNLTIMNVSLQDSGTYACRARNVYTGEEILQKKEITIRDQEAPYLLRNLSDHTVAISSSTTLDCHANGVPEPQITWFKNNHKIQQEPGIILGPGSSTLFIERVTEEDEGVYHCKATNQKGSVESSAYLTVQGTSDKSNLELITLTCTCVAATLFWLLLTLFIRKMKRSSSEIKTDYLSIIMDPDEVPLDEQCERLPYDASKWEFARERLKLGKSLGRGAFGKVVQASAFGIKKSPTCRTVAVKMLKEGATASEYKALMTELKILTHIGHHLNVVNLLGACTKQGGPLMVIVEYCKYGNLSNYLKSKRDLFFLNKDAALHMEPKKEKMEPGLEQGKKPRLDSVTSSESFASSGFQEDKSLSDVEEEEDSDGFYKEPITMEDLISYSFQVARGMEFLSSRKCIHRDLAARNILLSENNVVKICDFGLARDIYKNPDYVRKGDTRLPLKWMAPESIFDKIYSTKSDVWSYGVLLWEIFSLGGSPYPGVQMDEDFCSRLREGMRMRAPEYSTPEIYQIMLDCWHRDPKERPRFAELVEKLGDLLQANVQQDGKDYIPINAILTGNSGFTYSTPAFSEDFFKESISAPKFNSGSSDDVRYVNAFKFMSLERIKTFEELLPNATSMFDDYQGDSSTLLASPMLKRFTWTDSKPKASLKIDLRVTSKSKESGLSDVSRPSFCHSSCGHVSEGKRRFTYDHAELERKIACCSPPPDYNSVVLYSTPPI

[4] = target: Fibroblast growth factor receptor 1 (Homo sapiens, UniProt P11362)
Fibroblast growth factor receptor 1, sequence (P11362 22-822 limits assumed): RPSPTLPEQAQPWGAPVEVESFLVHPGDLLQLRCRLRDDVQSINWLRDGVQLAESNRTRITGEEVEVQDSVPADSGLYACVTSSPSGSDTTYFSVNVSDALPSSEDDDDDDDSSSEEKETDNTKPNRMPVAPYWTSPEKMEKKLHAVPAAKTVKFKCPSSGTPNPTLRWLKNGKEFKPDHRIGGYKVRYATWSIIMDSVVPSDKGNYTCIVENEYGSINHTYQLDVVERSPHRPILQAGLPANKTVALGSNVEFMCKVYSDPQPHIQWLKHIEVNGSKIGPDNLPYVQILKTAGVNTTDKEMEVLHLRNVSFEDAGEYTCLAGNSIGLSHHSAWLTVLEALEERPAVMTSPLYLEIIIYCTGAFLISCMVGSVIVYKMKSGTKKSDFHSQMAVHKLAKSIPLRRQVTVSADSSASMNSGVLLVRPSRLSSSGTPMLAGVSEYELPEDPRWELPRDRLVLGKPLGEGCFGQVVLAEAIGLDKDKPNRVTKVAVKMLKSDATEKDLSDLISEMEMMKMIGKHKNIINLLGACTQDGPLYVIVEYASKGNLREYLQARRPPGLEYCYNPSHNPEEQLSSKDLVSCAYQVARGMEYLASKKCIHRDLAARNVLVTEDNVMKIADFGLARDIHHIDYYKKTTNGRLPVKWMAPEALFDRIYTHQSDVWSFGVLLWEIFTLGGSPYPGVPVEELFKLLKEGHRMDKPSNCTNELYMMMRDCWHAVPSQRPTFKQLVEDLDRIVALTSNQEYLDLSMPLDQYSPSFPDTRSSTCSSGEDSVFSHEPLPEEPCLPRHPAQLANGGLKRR
Description: Induction of stabilization of recombinant FGFR1 (unknown origin) assessed as change in melting temperature by differential scanning fluorimetry assay

Ephrin type-A receptor 2 = Ephrin type-A receptor 2 (Homo sapiens, UniProt P29317)
Ephrin type-A receptor 2, sequence (P29317 whole entry): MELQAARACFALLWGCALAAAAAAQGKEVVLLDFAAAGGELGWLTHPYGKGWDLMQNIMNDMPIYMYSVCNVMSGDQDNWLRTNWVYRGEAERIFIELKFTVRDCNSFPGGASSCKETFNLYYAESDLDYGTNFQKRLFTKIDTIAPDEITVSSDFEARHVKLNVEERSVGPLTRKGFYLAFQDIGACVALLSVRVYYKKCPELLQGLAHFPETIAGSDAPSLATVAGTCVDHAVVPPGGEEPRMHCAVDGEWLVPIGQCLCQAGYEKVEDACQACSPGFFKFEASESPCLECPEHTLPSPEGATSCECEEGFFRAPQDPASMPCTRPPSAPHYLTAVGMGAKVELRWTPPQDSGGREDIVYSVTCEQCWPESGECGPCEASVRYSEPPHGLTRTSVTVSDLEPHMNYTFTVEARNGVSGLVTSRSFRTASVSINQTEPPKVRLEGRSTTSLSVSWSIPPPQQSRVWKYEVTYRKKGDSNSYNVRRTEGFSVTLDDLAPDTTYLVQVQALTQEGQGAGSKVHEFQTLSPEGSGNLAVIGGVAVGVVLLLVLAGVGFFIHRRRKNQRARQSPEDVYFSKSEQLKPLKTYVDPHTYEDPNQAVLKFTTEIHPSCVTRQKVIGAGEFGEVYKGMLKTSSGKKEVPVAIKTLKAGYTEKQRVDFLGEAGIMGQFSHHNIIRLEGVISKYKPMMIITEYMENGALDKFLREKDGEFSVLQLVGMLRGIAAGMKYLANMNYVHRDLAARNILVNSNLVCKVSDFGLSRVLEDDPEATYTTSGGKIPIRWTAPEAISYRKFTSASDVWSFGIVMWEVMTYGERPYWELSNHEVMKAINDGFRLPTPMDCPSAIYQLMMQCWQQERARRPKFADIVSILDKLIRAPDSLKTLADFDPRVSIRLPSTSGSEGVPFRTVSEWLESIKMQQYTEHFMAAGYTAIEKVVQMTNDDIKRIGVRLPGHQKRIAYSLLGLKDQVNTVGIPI
Description: Induction of stabilization of recombinant EPHA2 (D596 to G900 residues) (unknown origin) expressed in Escherichia coli rosetta BL21(D3)-R3-pRARE2 competent cells assessed as change in melting temperature by differential scanning fluorimetry assay

[5] = target: T2, Ephrin type-B receptor 3 (Homo sapiens) (UniProt P54753); assay: Induction of stabilization of recombinant EPHB3 (unknown origin) assessed as change in melting temperature by differential scanning fluorimetry assay
T2 sequence (whole entry): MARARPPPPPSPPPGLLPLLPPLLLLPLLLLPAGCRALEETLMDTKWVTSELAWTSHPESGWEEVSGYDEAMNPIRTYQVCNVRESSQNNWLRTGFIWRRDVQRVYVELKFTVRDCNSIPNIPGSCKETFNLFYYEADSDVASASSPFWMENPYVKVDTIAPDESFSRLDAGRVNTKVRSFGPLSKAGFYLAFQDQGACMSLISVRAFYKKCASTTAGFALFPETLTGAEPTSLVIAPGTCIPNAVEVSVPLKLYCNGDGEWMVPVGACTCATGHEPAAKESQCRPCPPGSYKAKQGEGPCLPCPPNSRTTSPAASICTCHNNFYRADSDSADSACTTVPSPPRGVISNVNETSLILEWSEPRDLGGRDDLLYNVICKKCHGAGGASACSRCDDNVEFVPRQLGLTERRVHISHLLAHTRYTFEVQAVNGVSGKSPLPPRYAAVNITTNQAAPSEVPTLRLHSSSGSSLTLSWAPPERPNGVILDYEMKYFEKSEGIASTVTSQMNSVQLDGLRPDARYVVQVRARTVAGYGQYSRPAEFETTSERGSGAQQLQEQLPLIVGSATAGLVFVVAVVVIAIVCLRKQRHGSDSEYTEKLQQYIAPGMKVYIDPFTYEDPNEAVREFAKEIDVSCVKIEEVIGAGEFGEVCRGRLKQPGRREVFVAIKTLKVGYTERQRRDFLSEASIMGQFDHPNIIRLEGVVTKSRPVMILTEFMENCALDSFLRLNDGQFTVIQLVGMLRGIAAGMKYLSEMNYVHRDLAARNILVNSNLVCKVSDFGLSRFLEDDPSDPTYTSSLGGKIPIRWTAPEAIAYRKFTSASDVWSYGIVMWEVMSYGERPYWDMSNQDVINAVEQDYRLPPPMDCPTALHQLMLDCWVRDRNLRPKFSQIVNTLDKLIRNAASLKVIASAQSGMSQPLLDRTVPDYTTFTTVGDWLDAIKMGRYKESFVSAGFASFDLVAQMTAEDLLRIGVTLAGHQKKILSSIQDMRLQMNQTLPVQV

[6] = target: Ephrin type-A receptor 7 (Homo sapiens) (UniProt Q15375); assay: Induction of stabilization of recombinant EPHA7 (unknown origin) assessed as change in melting temperature by differential scanning fluorimetry assay
Ephrin type-A receptor 7 (Homo sapiens), sequence (Q15375 28-998 limits assumed): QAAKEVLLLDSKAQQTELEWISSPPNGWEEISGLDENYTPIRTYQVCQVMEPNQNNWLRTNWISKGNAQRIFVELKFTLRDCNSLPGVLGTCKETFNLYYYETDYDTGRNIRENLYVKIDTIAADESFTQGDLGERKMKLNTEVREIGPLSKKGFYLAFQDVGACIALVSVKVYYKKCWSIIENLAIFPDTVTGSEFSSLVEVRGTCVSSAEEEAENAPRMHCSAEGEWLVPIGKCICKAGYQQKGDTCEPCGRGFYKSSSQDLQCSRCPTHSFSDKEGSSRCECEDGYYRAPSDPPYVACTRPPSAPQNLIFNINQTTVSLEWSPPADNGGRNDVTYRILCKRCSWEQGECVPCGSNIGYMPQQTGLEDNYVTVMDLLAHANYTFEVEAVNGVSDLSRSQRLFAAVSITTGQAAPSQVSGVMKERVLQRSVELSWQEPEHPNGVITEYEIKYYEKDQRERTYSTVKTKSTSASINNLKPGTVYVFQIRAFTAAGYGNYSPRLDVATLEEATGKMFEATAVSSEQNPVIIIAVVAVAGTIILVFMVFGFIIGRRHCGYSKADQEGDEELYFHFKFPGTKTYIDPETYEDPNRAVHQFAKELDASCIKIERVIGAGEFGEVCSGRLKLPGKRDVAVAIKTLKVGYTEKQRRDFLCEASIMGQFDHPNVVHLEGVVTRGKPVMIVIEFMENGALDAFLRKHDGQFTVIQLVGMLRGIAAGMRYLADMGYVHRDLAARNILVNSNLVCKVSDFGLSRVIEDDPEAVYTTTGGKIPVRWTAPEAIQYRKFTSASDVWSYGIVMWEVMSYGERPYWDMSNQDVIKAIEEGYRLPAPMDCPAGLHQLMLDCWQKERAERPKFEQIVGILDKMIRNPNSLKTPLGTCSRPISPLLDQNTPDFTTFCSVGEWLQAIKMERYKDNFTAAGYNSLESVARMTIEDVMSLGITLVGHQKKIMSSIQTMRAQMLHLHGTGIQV

Ephrin type-A receptor 4 = Ephrin type-A receptor 4 (Homo sapiens, UniProt P54764); assay: Induction of stabilization of recombinant EPHA4 (unknown origin) assessed as change in melting temperature by differential scanning fluorimetry assay
[7] = target: Fibroblast growth factor receptor 2 (Homo sapiens) (UniProt P21802)
Fibroblast growth factor receptor 2 (Homo sapiens), sequence (P21802 22-821 limits assumed): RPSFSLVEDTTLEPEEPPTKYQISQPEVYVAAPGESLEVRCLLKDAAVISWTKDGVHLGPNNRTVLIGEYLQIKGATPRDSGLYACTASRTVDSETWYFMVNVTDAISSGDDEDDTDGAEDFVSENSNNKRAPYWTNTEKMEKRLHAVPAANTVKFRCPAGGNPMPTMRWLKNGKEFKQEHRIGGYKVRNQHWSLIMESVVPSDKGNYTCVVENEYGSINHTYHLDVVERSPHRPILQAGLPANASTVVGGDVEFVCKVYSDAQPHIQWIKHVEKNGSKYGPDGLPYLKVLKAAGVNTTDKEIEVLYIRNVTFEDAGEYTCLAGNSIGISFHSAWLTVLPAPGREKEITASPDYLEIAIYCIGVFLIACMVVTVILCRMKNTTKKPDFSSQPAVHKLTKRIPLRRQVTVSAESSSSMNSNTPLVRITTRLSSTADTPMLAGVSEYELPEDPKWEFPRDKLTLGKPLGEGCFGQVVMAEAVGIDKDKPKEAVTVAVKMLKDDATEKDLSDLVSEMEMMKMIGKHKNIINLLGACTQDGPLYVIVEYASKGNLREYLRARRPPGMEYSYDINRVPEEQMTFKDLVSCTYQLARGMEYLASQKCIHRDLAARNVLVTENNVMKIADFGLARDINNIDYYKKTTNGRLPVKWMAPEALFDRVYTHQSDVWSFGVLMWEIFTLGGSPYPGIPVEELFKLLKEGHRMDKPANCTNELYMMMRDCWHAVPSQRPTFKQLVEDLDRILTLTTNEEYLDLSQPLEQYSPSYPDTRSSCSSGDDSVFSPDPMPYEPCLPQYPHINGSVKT
Description: Induction of stabilization of recombinant FGFR2 (unknown origin) assessed as change in melting temperature by differential scanning fluorimetry assay

[8] = target: T3, Ephrin type-B receptor 1 (Homo sapiens) (UniProt P54762); assay: Induction of stabilization of recombinant EPHB1 (unknown origin) assessed as change in melting temperature by differential scanning fluorimetry assay
T3 sequence (whole entry): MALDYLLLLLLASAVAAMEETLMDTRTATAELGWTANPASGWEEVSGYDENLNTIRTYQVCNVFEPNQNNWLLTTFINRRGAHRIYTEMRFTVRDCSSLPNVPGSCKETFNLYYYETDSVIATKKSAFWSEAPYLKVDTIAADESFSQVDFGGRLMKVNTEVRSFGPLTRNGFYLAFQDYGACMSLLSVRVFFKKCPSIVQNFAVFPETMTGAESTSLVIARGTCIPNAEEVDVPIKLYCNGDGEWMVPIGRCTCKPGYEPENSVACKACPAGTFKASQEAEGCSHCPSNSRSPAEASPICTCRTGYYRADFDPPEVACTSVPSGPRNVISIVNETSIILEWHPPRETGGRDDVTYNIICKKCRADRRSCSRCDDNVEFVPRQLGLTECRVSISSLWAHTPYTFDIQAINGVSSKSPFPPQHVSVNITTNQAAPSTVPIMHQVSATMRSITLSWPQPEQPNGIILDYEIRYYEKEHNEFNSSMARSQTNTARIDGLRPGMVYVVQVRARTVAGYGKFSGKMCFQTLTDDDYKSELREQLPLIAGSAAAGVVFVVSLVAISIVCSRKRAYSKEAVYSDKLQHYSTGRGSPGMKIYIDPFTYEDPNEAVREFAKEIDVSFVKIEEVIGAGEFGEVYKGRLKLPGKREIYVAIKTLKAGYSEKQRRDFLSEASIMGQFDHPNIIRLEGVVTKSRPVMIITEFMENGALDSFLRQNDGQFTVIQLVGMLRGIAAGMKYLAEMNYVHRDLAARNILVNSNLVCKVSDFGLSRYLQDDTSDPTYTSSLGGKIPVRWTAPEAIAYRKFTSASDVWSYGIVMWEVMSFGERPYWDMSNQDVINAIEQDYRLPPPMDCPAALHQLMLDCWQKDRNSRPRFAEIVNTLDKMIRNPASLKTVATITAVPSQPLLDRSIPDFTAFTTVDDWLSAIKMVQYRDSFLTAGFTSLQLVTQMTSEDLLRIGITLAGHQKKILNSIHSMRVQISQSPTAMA

deltaTm [1] [K]	deltaTm [2] [K]	deltaTm [3] [K]	deltaTm [4] [K]	deltaTm (Ephrin type-A receptor 2) [K]	deltaTm [5] [K]	deltaTm [6] [K]	deltaTm (Ephrin type-A receptor 4) [K]	deltaTm [7] [K]	deltaTm [8] [K]	SMILES
6.3	5.7	7.5	3.8	9.2	4.3	-1.5	4.6	5.5	5.3	O=S1(=O)NCCCNc2nc(ncc2-c2ccc(F)c(Cl)c2)Nc2cccc1c2
4.1	1.9	3	2.2	5	2.3	-3.3	1.2	2.9	2.7	COc1cc(-c2cnc3nc2NCCCNS(=O)(=O)c2cccc(c2)N3)cc(F)c1F
6.4	5.5	-1.3	2.7	7.6	6.1	2	3.6	3	4.2	COc1cc(-c2cnc3nc2NCCCNS(=O)(=O)c2cc(ccc2C)N3)ccc1F
3.1	1.8	2.6	0.6	2.9	1.3	0.1	1.3	1.8	1.1	COC(=O)c1ccc(-c2cnc3nc2NCCCNS(=O)(=O)c2cccc(c2)N3)cc1OC
6.4	4.1	10.7	4.9	7.8	3	-2	2.9	6.5	4	O=S1(=O)NCCCNc2nc(ncc2-c2ccc(F)c(O)c2)Nc2cccc1c2
6.1	2.1	4.1	2.3	4.6	1.4	0.8	1.4	3.3	0.6	COc1ccc(-c2cnc3nc2NCCCNS(=O)(=O)c2cccc(c2)N3)cc1OC
7.8	4.3	4.7	3.3	6.9	4.3	2	3.4	4.1	3	CSc1cc(-c2cnc3nc2NCCCNS(=O)(=O)c2cccc(c2)N3)ccc1F
-1.3	-0.7	6.4	3.5	2.1	1.5	-2.8	-0.6	3.1	1.3	COC(=O)c1cc(-c2cnc3nc2NCCCNS(=O)(=O)c2cccc(c2)N3)ccc1F

Further lines, the compound ahead of its results:

SMILES	deltaTm [1] [K]	deltaTm [2] [K]	deltaTm [3] [K]	deltaTm [4] [K]	deltaTm (Ephrin type-A receptor 2) [K]	deltaTm [5] [K]	deltaTm [6] [K]	deltaTm (Ephrin type-A receptor 4) [K]	deltaTm [7] [K]	deltaTm [8] [K]
O=S1(=O)NCCCNc2nc(ncc2-c2cccc(Cl)c2F)Nc2cccc1c2	5.3	4.6	6	4	7	3.7	1.8	3.4	5.3	3.1
CN[C@@H]1C[C@H]2O[C@@](C)([C@@H]1OC)n1c3ccccc3c3c4c(c5c6ccccc6n2c5c31)C(=O)NC4			10.2		6.4	6.1		6.2		6.4
COc1cc(-c2cnc3nc2NCCCNS(=O)(=O)c2cc(ccc2OCCN2CCOCC2)N3)ccc1F	9	4.6	3	2.1	6.9	4.8	1	3.7	3.2	4.2
O=S1(=O)NCCCNc2nc(ncc2Br)Nc2cccc1c2	4.9				6.7					
COc1cc(-c2cnc3nc2NCCCNS(=O)(=O)c2cccc(c2)N3)c(F)cc1Cl	9.3	6	3	2.7	9.8	5.8	0.4	4.7	3.4	4.9
O=S1(=O)NCCCNc2nc(ncc2-c2cc(Cl)c(F)cc2F)Nc2cccc1c2	5.8	5.7	4.3	3.1	7.5	4.3	0.1	3.2	4.7	3.3
